Broadly, the IC50 is the midpoint of a concentration-inhibition curve.

In experiment [1] the target is T1, KRAS G12C-BRAF complex (Homo sapiens, UniProt P01116+P62937, G12C).
T1 construct: expressed in transfected cells
As to the kind of experiment: KRAS G12C-BRAF NanoBit assay in HEK293 cells. Type of experiment: cell-based. Conditions: HEK293 stable cell pool, 3 hours of incubation. The procedure: This assay is to measure the ability of tested compounds in disruption of the KRAS G12C-BRAF complex at the cellular level, we established the NanoBit cellular assay in mammalian HEK293 (ATCC) cells. HEK293 cells were grown and maintained using DMEM medium (Thermo Fisher Scientific) with 10% fetal bovine serum and 1% penicillin/streptomycin. Both KRAS G12C and BRAF RBD were cloned into the NanoBit vectors ([…] vectors system, Promega) with the orientations SmBit-KRAS G12C and BRAF RBD-LgBit, respectively, and co-transfected into HEK293 cells. Cells were then selected with 100 μg/mL Hygromycin B (10687010, Thermo Fisher) and Blasticidin (5 μg/mL) for 4 weeks to get the stable cell pool. On the day of the assay, 75 nL of compound solution was presented in a 384-well assay plate as a 16-point 3-fold dilution starting from a final concentration of 30 μM in DMSO. Then cells were seeded at 10,000 cells/25 μL/well in a 384-well plate. After 3 hours of incubation, 6 μL of volume of Nano-Glo® Live Cell Substrate (Promega) was added into each well. Monitor luminescence using ultra384 model in Envision at 20 minutes. Compounds that facilitate disruption of the KRAS G12C-BRAF RBD complex were identified as those eliciting a decrease of luminescence relative to DMSO control wells.

For a further experiment, the system named is SW620 cells (KRAS G12V). Kind of experiment: Cell viability assay, G12V. In kind it is cell-based, human. Conditions: Homo sapiens, SW-620; SW620, 72 hrs, Cell Counting Kit-8. The procedure:
(§1) The purpose of this cellular assay was to determine the effects of test compounds on the proliferation of human cancer cell lines NCI-H358 (ATCC-CRL5807) cells, AGS (ATCC-CRL-1739) cells, SW620 (ATCC-CCL-227) over a 3-day treatment period by quantifying the amount of NADPH present at endpoint using Cell Counting Kit-8.
(§2) Cells were seeded at 5,000 cells/well (NCI-H358), 2,000 cells/well (AGS) 2,000 cells/well (SW620) in 96-well assay plates (Corning-3699) and incubated overnight. On the day of the assay, diluted compounds were then added in a final concentration of 0.5% DMSO. After 72 hrs incubation, a tenth of the volume of cell counting kit 8 (Dnjindo-CK04) was added into each well. Read the signal (OD450 minus OD650) using EnVision after 2 hrs incubation. IC50 was determined by fitting a 4-parameter sigmoidal concentration response model.
On the technique in general: Tetrazolium dyes change colour on reduction, which living cells bring about.

Experiment [2] has as its target T1, KRAS G12C-BRAF complex. As to the kind of experiment: KRAS-BRAF with CYPA (500 nM) interaction assay (TR-FRET), G12C. In kind it is biochemical. Conditions: 3 hours. The procedure: (§3) Kras-BRAF with CYPA (500 nM) Interaction Assay In this example, TR-FRET was also used to measure the compound or compound-CYPA dependent disruption of the KRAS G12C-BRAF complex. This protocol was also used to measure disruption of KRAS G12D or KRAS G12V binding to BRAF by a compound of the invention, respectively. […] TR-FRET signal was read on a […] microplate reader (Ex320 nm, Em 665/615 nm). Compounds that facilitate disruption of the KRAS-BRAF complex were identified as those eliciting a decrease in the TR-FRET ratio relative to DMSO control wells.

Experiment [3] addresses KRAS G12V binding to BRAF (Homo sapiens, UniProt P01116+P62937, G12V). As to the kind of experiment: KRAS-BRAF with CYPA (500 nM) interaction assay (TR-FRET), G12V. Conditions: 3 hours. In kind it is biochemical. The procedure:
as §3

Experiment [4] deals with KRAS G12D binding to BRAF (Homo sapiens, UniProt P01116+P62937, G12D). Kind of experiment: KRAS-BRAF with CYPA (500 nM) interaction assay (TR-FRET), G12D. Type of experiment: biochemical. Conditions: 3 hours. The procedure:
as §3
Background: Time-resolved FRET reads energy transfer from a long-lived donor to a nearby acceptor.

The next experiment deals with AGS cells (KRAS G12D). As to the kind of experiment: Cell viability assay, G12D. Type of experiment: cell-based, human. Conditions: Homo sapiens, 72 hrs, Cell Counting Kit-8. The procedure: as §1, §2
Experiment [5] relates to phosphorylation of ERK, KRAS G12V in SW620. As to the kind of experiment: pERK inhibition assay, G12V. Conditions: Homo sapiens, SW-620; SW620, 4 hours of incubation. Type of experiment: cell-based, human. The procedure:
(§4) This assay is to measure the ability of test compounds in inhibiting the phosphorylation of ERK, the downstream signaling of KRAS G12C in NCI-H358 cells, KRAS G12D in AGS cells, and KRAS G12V in SW620. NCI-H358 (ATCC-CRL5807) cells, AGS (ATCC-CRL-1739) cells, SW620 (ATCC-CCL-227) cells were all grown and maintained using RPMI-1640 medium (Thermo Fisher Scientific) with 10% fetal bovine serum and 1% penicillin/streptomycin. On the day prior to compound addition, cells were plated in tissue culture-treated 96 well plates (Corning-3699) at a density of 30,000 cell/well, 20,000 cell/well, 30,000 cell/well for NCI-H358, AGS and SW620 respectively, and allowed for attachment overnight. Diluted compounds were then added in a final concentration of 0.5% DMSO. After 4 hours of incubation, the medium was removed, 100 μL of 4% formaldehyde was added, and the assay plates were incubated at room temperature for 20 minutes. The plates were then washed once with phosphate buffered saline (PBS), and permeabilized with 100 μL of chilled methanol for 10 minutes. Non-specific antibody binding to the plates was blocked using 50 μL 1×BSA blocking buffer (Thermo-37520, 10-fold dilution by Phosphate-Buffered Saline Tween (PBST) for at least 1 hour at room temperature.
(§5) The amount of phosphor-ERK was determined using an antibody specific for phosphorylated form of ERK. Primary antibody (pERK, CST-4370, Cell Signaling Technology) was diluted 1:300 in blocking buffer, with 50 μL aliquoted to each well, and incubated overnight at 4° C. Cells was washed five times for 5 minutes with PBST. Secondary antibody (HRP-linked anti-rabbit IgG, CST-7074, Cell Signaling Technology) was diluted 1:1000 in blocking buffer, and 50 μL was added to each well and incubated 1-2 hrs at room temperature. Cells was washed 5 times for 5 minutes with PBST, 100 μL TMB ELISA substrate (abcam-ab171523) were added and gently shake for 20 minutes. 50 μL stop solution (abcam-ab171529) were added, and then read the signal (OD450) by EnVision.
(§6) IC50 was determined by fitting a 4-parameter sigmoidal concentration response model.

In experiment [6] the test system is phosphorylation of ERK, KRAS G12C in NCI-H358 cells. As to the kind of experiment: pERK inhibition assay, G12C. Type of experiment: cell-based, human. Conditions: Homo sapiens; NCI-H358, 4 hours of incubation. The procedure:
as §4, §5, §6

The subject of experiment [7] is NCI-H358 cells (KRAS G12C). Kind of experiment: Cell viability assay, G12C. In kind it is cell-based, human. Conditions: Homo sapiens; NCI-H358, 72 hrs, Cell Counting Kit-8. The procedure: as §1, §2
Experiment [8] has as its system phosphorylation of ERK, KRAS G12D in AGS cells. As to the kind of experiment: pERK inhibition assay, G12D. Conditions: Homo sapiens, 4 hours of incubation. Type of experiment: cell-based, human. The procedure:
as §4, §5, §6

Some results are limits rather than exact numbers.

KRAS G12D binding to BRAF, sequence (P01116 1-188 isoform P01116-2 G12D): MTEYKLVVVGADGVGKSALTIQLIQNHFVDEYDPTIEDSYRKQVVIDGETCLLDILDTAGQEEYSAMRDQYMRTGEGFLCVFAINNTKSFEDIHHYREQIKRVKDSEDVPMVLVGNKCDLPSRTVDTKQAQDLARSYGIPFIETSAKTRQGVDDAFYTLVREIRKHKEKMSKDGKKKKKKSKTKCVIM
KRAS G12D binding to BRAF, sequence (P62937 whole entry): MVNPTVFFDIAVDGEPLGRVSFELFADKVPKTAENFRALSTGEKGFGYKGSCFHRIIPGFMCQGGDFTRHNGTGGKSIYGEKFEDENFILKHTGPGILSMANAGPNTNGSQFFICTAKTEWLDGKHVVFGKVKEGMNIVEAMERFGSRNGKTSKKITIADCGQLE
T1 sequence (P01116 1-188 isoform P01116-2 G12C): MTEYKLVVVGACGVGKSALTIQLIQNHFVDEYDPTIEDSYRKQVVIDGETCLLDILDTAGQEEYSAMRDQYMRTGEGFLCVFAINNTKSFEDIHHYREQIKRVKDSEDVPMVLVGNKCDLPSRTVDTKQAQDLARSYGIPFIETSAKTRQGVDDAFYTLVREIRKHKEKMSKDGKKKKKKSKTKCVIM
T1 sequence (P62937 whole entry): as the sequence (P62937 whole entry) above
KRAS G12V binding to BRAF, sequence (P01116 1-188 isoform P01116-2 G12V): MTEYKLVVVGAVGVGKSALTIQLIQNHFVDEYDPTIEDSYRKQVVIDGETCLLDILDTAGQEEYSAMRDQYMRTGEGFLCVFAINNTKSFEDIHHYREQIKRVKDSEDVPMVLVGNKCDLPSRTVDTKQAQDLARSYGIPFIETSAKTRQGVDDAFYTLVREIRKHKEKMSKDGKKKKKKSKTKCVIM
KRAS G12V binding to BRAF, sequence (P62937 whole entry): as the sequence (P62937 whole entry) above

Take `CCn1c(-c2cc(N3CCN(C)CC3)cnc2[C@H](C)OC)c2c3cc(c(F)cc31)-c1csc(n1)C[C@H](NC(=O)[C@H](C(C)C)N(C)C(=O)[C@H]1C[C@@H](C#CC(F)(F)F)C1)C(=O)N1CCC[C@H](N1)C(=O)OCC(C)(C)C2` (atropisomer, axis not shown; (M)) [Example 6, cis-N-[(1S)-1-[[(7S,13S)-21-ethyl-24-fluoro-(20M)-20-[2-[(1S)-1-methoxyethyl]-5-(4-methylpiperazin-1-yl)-3-pyridyl]-17,17-dimethyl-8,14-dioxo-15-oxa-4-thia-9,21,27,28-tetrazapentacyclo[17.5.2.1^2,5.1^9,13.0^22,26]octacosa-1(25),2,5(28),19,22(26),23-hexaen-7-yl]carbamoyl]-2-methyl-propyl]-N-methyl-3-(3,3,3-trifluoroprop-1-ynyl)cyclobutanecarboxamide]: the half-maximal inhibitory concentration (IC50) is 0.029 µM against KRAS G12C-BRAF complex [1]; 4.73 µM with SW620 cells (KRAS G12V); 0.021 µM against KRAS G12C-BRAF complex [2]; more than 10 µM in [3]; more than 10 µM in [4]; 2.84 µM in the experiment on AGS cells (KRAS G12D). The concentration for half-maximal inhibition (IC50) in experiment [5] is 0.008 µM; in experiment [6] it was 0.002 µM; in [7] it was less than 0.001 µM.

With `CO[C@@H](C)c1ncc(N2CCN(CC(F)(F)F)CC2)cc1-c1c2c3cc(c(F)cc3n1CC(F)(F)F)-c1csc(n1)C[C@H](NC(=O)[C@H](C(C)C)N(C)C(=O)[C@H]1C[C@@H](C#CC(F)(F)F)C1)C(=O)N1CCC[C@H](N1)C(=O)OCC(C)(C)C2` (atropisomer, axis not shown; (M)) [Example 7, cis-N-[(1S)-1-[[(7S,13S)-24-fluoro-(20M)-20-[2-[(1S)-1-methoxyethyl]-5-[4-(2,2,2-trifluoroethyl)piperazin-1-yl]-3-pyridyl]-17,17-dimethyl-8,14-dioxo-21-(2,2,2-trifluoroethyl)-15-oxa-4-thia-9,21,27,28-tetrazapentacyclo[17.5.2.1^2,5.1^9,13.0^22,26]octacosa-1(25),2,5(28),19,22(26),23-hexaen-7-yl]carbamoyl]-2-methyl-propyl]-N-methyl-3-(3,3,3-trifluoroprop-1-ynyl)cyclobutanecarboxamide], the IC50 is 0.335 µM against KRAS G12C-BRAF complex [1]; more than 5 µM with SW620 cells (KRAS G12V); more than 10 µM against KRAS G12C-BRAF complex [2]; more than 10 µM in experiment [3]; more than 10 µM in [4]; more than 5 µM in the experiment on AGS cells (KRAS G12D). In addition, the results for the half-inhibitory concentration (IC50) in experiment [5], in experiment [6] and in [7] were 0.099 µM, 1.1 µM and 0.023 µM, respectively.

On to `CO[C@@H](C)c1ncc(N2CCN(C)CC2)cc1-c1c2c3cc(c(F)cc3n1CC(F)(F)F)-c1csc(n1)C[C@H](NC(=O)[C@H](C(C)C)N(C)C(=O)N1CC(C#CC(F)(F)F)C1)C(=O)N1CCC[C@H](N1)C(=O)OCC(C)(C)C2` (atropisomer, axis not shown; (M)) [Example 2, N-[(1S)-1-[[(7S,13S)-24-fluoro-(20M)-20-[2-[(1S)-1-methoxyethyl]-5-(4-methylpiperazin-1-yl)-3-pyridyl]-17,17-dimethyl-8,14-dioxo-21-(2,2,2-trifluoroethyl)-15-oxa-4-thia-9,21,27,28-tetrazapentacyclo[17.5.2.1^2,5.1^9,13.0^22,26]octacosa-1(25),2,5(28),19,22(26),23-hexaen-7-yl]carbamoyl]-2-methyl-propyl]-N-methyl-3-(3,3,3-trifluoroprop-1-ynyl)azetidine-1-carboxamide], for which the IC50 against KRAS G12C-BRAF complex [1] is 0.018 µM; with SW620 cells (KRAS G12V) it was 0.01 µM; on KRAS G12C-BRAF complex [2], 1.79 µM; in experiment [3] it was 6.74 µM; in experiment [4] it was more than 10 µM; in the experiment with AGS cells (KRAS G12D), 0.02 µM. Besides, the half-maximal inhibitory concentration (IC50) in experiment [5] was found to be 0.007 µM; in experiment [6], 0.013 µM; in experiment [7], 0.002 µM.

`CO[C@@H](C)c1ncc(N2CCN(C)CC2)cc1-c1c2c3cc(c(F)cc3n1CC(F)(F)F)-c1csc(n1)C[C@H](NC(=O)[C@H](C(C)C)N(C)C(=O)[C@H]1C[C@@H](C#Cc3nccc(C(F)(F)F)n3)C1)C(=O)N1CCC[C@H](N1)C(=O)OCC(C)(C)C2` (atropisomer, axis not shown; (M)) [Example 16, cis-N-[(1S)-1-[[(7S,13S)-24-fluoro-(20M)-20-[2-[(1S)-1-methoxyethyl]-5-(4-methylpiperazin-1-yl)-3-pyridyl]-17,17-dimethyl-8,14-dioxo-21-(2,2,2-trifluoroethyl)-15-oxa-4-thia-9,21,27,28-tetrazapentacyclo[17.5.2.1^2,5.1^9,13.0^22,26]octacosa-1(25),2,5(28),19,22(26),23-hexaen-7-yl]carbamoyl]-2-methyl-propyl]-N-methyl-3-[2-[4-(trifluoromethyl)pyrimidin-2-yl]ethynyl]cyclobutanecarboxamide]: the IC50 in experiment [8] was more than 10 µM; at KRAS G12C-BRAF complex [1], 0.209 µM; with SW620 cells (KRAS G12V), 0.237 µM; in the experiment with AGS cells (KRAS G12D), 0.743 µM; in experiment [5], 0.031 µM; in [6] it was 0.021 µM. This compound also returned a 50% inhibitory concentration (IC50) in [7] of 0.011 µM.

The values are drawn from patent US20250257075A1, “MACROCYCLIC INHIBITORS OF KRAS FOR THE TREATMENT OF CANCER” (Hoffmann-La Roche Inc., priority 2022, published 2025).
